Experimental data as given in ChEMBL document CHEMBL4390652, “Design, biological evaluation and X-ray crystallography of nanomolar multifunctional ligands targeting simultaneously acetylcholinesterase and glycogen synthase kinase-3” (Eur J Med Chem, 2019).
pIC50: −log10 of the molar value.

Columns and labels:
[1] = molecular target: Ephrin type-A receptor 4 (Homo sapiens) (UniProt P54764); experiment: Binding affinity to wild-type human partial length EPHA4 (T601 to R897 residues) expressed in bacterial expression system assessed as residual binding level at 10 uM by Kinomescan method relative to control
Chain of Ephrin type-A receptor 4 (Homo sapiens) (P54764 whole entry, the tested form may be a part): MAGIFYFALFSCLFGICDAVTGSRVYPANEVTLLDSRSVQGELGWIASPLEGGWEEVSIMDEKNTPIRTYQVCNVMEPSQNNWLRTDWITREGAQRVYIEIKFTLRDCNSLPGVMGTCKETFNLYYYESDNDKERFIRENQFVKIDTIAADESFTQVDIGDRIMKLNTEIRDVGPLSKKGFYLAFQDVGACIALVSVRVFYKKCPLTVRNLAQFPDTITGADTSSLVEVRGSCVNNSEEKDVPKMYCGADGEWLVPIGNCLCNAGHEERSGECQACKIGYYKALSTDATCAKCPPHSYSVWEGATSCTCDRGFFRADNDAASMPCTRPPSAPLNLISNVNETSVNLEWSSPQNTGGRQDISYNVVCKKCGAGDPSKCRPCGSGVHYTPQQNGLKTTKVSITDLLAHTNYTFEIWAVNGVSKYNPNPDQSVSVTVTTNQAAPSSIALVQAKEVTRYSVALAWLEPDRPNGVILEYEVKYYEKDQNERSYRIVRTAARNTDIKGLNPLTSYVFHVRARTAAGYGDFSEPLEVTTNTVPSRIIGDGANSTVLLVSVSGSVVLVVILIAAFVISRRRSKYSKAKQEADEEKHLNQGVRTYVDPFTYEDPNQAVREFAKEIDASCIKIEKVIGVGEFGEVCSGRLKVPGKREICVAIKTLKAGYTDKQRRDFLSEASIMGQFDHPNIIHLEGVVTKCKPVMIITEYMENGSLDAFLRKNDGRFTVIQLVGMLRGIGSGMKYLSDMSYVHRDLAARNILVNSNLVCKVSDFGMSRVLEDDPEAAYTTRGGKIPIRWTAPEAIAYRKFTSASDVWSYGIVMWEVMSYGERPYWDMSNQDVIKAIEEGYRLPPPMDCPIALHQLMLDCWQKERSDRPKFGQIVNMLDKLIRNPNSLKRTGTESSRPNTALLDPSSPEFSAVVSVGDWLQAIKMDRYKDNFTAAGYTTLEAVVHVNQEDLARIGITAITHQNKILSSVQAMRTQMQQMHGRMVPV

[2] = molecular target: Serine/threonine-protein kinase 4 (Homo sapiens) (UniProt Q13043); experiment: Binding affinity to wild-type human full length MST1 (M1 to F487 residues) expressed in bacterial expression system assessed as residual binding level at 10 uM by Kinomescan method relative to control
Chain of Serine/threonine-protein kinase 4 (Homo sapiens) (Q13043 whole entry, the tested form may be a part): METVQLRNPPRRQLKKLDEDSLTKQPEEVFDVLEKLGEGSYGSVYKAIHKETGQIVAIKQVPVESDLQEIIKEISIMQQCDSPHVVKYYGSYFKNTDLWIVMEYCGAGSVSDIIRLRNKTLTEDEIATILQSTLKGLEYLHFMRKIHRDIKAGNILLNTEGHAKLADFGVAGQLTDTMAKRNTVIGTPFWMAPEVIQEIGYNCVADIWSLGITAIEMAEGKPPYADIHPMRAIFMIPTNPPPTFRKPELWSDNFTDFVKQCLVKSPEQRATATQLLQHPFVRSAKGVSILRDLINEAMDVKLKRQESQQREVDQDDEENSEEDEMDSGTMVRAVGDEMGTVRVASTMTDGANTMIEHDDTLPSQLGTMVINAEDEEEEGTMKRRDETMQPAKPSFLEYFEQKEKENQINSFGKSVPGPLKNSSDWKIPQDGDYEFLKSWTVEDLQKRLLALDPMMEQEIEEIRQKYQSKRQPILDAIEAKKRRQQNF

[3] = molecular target: Serine/threonine-protein kinase ULK2 (Homo sapiens) (UniProt Q8IYT8); experiment: Binding affinity to wild-type human partial length ULK2 (M1 to S301 residues) expressed in mammalian expression system assessed as residual binding level at 10 uM by Kinomescan method relative to control
[4] = molecular target: Serine/threonine-protein kinase MRCK beta (Homo sapiens) (UniProt Q9Y5S2); experiment: Binding affinity to wild-type human partial length MRCKB (L56 to S417 residues) expressed in bacterial expression system assessed as residual binding level at 10 uM by Kinomescan method relative to control
[5] = molecular target: Tyrosine-protein kinase BTK (Homo sapiens) (UniProt Q06187); experiment: Binding affinity to wild-type human full length BTK (M1 to S659 residues) expressed in mammalian expression system assessed as residual binding level at 10 uM by Kinomescan method relative to control
[6] = test system: Epidermal growth factor receptor (Homo sapiens), P00533 [L858R]; experiment: Binding affinity to human partial length EGFR L858R mutant (R669 to V1011 residues) expressed in bacterial expression system assessed as residual binding level at 10 uM by Kinomescan method relative to control
[7] = molecular target: Phosphorylase b kinase gamma catalytic chain, skeletal muscle/heart isoform (Homo sapiens) (UniProt Q16816); experiment: Binding affinity to wild-type human full length PHKG1 (M1 to Y387 residues) expressed in bacterial expression system assessed as residual binding level at 10 uM by Kinomescan method relative to control
Chain of Phosphorylase b kinase gamma catalytic chain, skeletal muscle/heart isoform (Homo sapiens) (Q16816 whole entry, looked up, the tested form may be a part, canonical isoform): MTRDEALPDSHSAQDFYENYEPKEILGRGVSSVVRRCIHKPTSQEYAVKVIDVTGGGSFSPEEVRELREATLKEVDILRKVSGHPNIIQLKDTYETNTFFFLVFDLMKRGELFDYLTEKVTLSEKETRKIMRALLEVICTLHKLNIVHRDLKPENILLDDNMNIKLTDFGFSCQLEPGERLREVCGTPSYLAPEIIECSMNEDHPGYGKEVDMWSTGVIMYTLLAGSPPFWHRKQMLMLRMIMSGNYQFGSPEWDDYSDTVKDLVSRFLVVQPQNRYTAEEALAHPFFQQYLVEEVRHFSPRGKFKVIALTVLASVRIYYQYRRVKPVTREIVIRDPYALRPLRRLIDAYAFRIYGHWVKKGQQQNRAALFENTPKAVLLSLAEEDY

[8] = molecular target: Casein kinase I isoform gamma-3 (Homo sapiens) (UniProt Q9Y6M4); experiment: Binding affinity to wild-type human full length CSNK1G3 (M1 to K447 residues) expressed in bacterial expression system assessed as residual binding level at 10 uM by Kinomescan method relative to control
Chain of Casein kinase I isoform gamma-3 (Homo sapiens) (Q9Y6M4 whole entry, looked up, the tested form may be a part, canonical isoform): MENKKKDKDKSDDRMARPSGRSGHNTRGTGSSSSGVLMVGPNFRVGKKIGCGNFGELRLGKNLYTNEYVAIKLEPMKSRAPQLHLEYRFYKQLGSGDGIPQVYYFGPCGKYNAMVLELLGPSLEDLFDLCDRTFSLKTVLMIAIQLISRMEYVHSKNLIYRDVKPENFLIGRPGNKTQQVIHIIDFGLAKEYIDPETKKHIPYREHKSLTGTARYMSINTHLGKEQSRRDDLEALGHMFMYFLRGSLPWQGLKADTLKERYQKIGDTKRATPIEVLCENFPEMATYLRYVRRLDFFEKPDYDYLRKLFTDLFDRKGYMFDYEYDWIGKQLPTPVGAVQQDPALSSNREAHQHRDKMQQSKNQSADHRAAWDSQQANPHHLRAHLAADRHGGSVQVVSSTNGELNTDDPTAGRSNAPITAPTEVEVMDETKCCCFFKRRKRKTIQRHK

[9] = test system: Tyrosine-protein kinase ABL1 (Homo sapiens), P00519 [F317I]; experiment: Binding affinity to human non-phosphorylated ABL1 F317I mutant (S229 to K512 residues) expressed in mammalian expression system assessed as residual binding level at 10 uM by Kinomescan method relative to control
[10] = molecular target: Ribosomal protein S6 kinase beta-1 (Homo sapiens) (UniProt P23443); experiment: Binding affinity to wild-type human partial length S6K1 (M1 to S421 residues) expressed in mammalian expression system assessed as residual binding level at 10 uM by Kinomescan method relative to control
[11] = molecular target: Phosphatidylinositol 3-kinase catalytic subunit type 3 (Homo sapiens) (UniProt Q8NEB9); experiment: Binding affinity to wild-type human partial length VPS34 (S282 to H879 residues) expressed in mammalian expression system assessed as residual binding level at 10 uM by Kinomescan method relative to control
Caco-2 = experiment: Cytotoxicity against human Caco2 cells assessed as growth inhibition incubated for 48 hrs by Hoechst 33342 staining based assay; type: cell-based; conditions: Caco-2, 48 h
[12] = molecular target: Serine/threonine-protein kinase 38 (Homo sapiens) (UniProt Q15208); experiment: Binding affinity to wild-type human partial length NDR1 (N33 to E449 residues) expressed in mammalian expression system assessed as residual binding level at 10 uM by Kinomescan method relative to control
Chain of Serine/threonine-protein kinase 38 (Homo sapiens) (Q15208 2-465 limits assumed): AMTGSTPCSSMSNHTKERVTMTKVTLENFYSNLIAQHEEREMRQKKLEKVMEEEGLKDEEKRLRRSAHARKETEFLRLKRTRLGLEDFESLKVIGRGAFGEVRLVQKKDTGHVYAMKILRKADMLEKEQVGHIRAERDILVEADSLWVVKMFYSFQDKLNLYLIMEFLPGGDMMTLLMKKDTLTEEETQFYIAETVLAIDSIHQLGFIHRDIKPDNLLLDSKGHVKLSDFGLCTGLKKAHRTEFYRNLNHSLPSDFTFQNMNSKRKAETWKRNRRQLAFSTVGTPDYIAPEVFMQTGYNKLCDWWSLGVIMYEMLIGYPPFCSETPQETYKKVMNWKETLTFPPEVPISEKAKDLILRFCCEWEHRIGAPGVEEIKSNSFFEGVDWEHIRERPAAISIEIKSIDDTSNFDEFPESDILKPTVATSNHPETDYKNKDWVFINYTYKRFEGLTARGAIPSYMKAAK

[13] = molecular target: Transient receptor potential cation channel subfamily M member 6 (Homo sapiens) (UniProt Q9BX84); experiment: Binding affinity to wild-type human partial length TRPM6 (Q1723 to I1998 residues) expressed in mammalian expression system assessed as residual binding level at 10 uM by Kinomescan method relative to control
[14] = molecular target: Calcium/calmodulin-dependent protein kinase type 1G (Homo sapiens) (UniProt Q96NX5); experiment: Binding affinity to wild-type human partial length CAMK1G (M1 to A342 residues) expressed in bacterial expression system assessed as residual binding level at 10 uM by Kinomescan method relative to control
[15] = molecular target: Activin receptor type-2A (Homo sapiens) (UniProt P27037); experiment: Binding affinity to wild-type human ACVR2A (V171 to T499 residues) expressed in bacterial expression system assessed as residual binding level at 10 uM by Kinomescan method relative to control
[16] = molecular target: Tyrosine-protein kinase JAK1 (Homo sapiens) (UniProt P23458); experiment: Binding affinity to wild-type human partial length JAK1 JH1 catalytic domain (V856 to K1154 residues) expressed in bacterial expression system assessed as residual binding level at 10 uM by Kinomescan method relative to control
Chain of Tyrosine-protein kinase JAK1 (Homo sapiens) (P23458 whole entry, the tested form may be a part): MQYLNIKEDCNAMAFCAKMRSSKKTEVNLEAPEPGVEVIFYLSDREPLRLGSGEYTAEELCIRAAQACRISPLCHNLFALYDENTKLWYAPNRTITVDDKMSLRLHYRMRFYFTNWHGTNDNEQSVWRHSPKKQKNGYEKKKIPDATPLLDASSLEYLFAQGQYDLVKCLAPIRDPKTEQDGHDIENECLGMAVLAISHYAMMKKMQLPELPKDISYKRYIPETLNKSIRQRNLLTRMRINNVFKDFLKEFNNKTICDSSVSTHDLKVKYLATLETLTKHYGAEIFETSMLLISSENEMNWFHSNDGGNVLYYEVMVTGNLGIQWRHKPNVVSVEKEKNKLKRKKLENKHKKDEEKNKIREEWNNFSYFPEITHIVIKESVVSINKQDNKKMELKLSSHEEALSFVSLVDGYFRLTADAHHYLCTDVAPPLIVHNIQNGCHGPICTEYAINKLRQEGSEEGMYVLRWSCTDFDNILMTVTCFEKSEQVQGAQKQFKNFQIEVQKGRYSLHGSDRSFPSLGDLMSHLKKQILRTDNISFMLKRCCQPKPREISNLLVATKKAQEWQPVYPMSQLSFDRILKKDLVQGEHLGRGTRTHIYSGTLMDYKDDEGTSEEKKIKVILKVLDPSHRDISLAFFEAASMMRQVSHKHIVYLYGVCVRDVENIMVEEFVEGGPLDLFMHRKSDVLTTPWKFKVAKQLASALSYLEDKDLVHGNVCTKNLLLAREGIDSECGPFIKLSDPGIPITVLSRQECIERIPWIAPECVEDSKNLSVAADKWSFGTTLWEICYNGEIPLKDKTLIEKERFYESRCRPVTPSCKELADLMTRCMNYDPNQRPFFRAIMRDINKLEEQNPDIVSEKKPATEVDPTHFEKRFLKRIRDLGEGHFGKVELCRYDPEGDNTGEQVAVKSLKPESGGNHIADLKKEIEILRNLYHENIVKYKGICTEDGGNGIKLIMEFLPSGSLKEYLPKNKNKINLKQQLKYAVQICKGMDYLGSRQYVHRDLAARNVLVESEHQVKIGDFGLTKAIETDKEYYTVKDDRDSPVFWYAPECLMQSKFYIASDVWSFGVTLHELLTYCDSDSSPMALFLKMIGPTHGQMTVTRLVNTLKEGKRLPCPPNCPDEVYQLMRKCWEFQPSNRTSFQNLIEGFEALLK

[17] = molecular target: Non-receptor tyrosine-protein kinase TYK2 (Homo sapiens) (UniProt P29597); experiment: Binding affinity to wild-type human partial length TYK2 JH1 catalytic domain (V877 to C1187 residues) expressed in mammalian expression system assessed as residual binding level at 10 uM by Kinomescan method relative to control
[18] = molecular target: Mitogen-activated protein kinase 4 (Homo sapiens) (UniProt P31152); experiment: Binding affinity to wild-type human partial length ERK4 (M1 to L365 residues) expressed in bacterial expression system assessed as residual binding level at 10 uM by Kinomescan method relative to control
[19] = molecular target: Serine/threonine-protein kinase WNK2 (Homo sapiens) (UniProt Q9Y3S1); experiment: Binding affinity to wild-type human partial length WNK2 (V47 to D482 residues) expressed in mammalian expression system assessed as residual binding level at 10 uM by Kinomescan method relative to control
[20] = molecular target: Ribosomal protein S6 kinase alpha-5 (Homo sapiens) (UniProt O75582); experiment: Binding affinity to wild-type human partial length N-terminal RPS6KA5 kinase domain 1 expressed in bacterial expression system assessed as residual binding level at 10 uM by Kinomescan method relative to control
Chain of Ribosomal protein S6 kinase alpha-5 (Homo sapiens) (O75582 whole entry, looked up, the tested form may be a part): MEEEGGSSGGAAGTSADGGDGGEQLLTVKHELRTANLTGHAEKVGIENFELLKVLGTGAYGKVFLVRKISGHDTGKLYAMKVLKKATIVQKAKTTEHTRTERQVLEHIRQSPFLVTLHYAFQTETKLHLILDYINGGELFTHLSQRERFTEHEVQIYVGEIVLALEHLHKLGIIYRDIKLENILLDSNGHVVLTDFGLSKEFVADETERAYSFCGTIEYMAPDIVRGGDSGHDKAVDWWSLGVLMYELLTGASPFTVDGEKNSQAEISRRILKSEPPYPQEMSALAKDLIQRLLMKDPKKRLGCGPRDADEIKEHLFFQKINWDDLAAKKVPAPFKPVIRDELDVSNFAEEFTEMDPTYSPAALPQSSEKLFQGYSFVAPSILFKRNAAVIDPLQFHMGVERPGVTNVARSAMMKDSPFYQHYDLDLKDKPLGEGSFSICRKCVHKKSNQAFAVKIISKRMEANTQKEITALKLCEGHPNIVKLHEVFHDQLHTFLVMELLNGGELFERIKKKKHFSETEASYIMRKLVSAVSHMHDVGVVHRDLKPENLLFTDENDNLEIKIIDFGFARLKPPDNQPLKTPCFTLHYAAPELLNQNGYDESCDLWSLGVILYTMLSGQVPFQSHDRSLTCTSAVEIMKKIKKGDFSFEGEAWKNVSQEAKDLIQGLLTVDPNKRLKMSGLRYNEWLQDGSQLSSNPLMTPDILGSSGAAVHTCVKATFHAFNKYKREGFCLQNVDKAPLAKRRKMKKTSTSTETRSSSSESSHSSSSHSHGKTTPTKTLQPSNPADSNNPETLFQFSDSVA

[21] = molecular target: Serine/threonine-protein kinase 35 (Homo sapiens) (UniProt Q8TDR2); experiment: Binding affinity to wild-type human partial length STK35 (G182 to A534 residues) expressed in bacterial expression system assessed as residual binding level at 10 uM by Kinomescan method relative to control
[22] = molecular target: NT-3 growth factor receptor (Homo sapiens) (UniProt Q16288); experiment: Binding affinity to wild-type human partial length TRKC (Q531 to G825 residues) expressed in mammalian expression system assessed as residual binding level at 10 uM by Kinomescan method relative to control
[23] = molecular target: Tyrosine-protein kinase JAK1 (Homo sapiens) (UniProt P23458); experiment: Binding affinity to wild-type human partial length JAK1 JH2 pseudokinase domain (R537 to D855 residues) expressed in mammalian expression system assessed as residual binding level at 10 uM by Kinomescan method relative to control
[24] = molecular target: Serine/threonine-protein kinase SIK3 (Homo sapiens) (UniProt Q9Y2K2); experiment: Binding affinity to wild-type human partial length QSK (A90 to L395 residues) expressed in mammalian expression system assessed as residual binding level at 10 uM by Kinomescan method relative to control

O=C(Nc1cc(-c2cn(CCNc3c4c(nc5ccccc35)CCCC4)nn2)ccn1)Nc1cccc2c1C1CCCCN1C2=O (racemic)
Activity [1]: 100% | Activity [2]: 66% | Activity [3]: 16% | Activity [4]: 99% | Activity [5]: 100% | Activity [6]: 80% | Activity [7]: 54% | Activity [8]: 80% | Activity [9]: 100% | Activity [10]: 10% | Activity [11]: 3.7% | pIC50 (Caco-2): 5.52 | Activity [12]: 100% | Activity [13]: 100% | Activity [14]: 44% | Activity [15]: 100% | Activity [16]: 84% | Activity [17]: 39% | Activity [18]: 4.7% | Activity [19]: 100% | Activity [20]: 55% | Activity [21]: 97% | Activity [22]: 14% | Activity [23]: 36% | Activity [24]: 23%
